One experiment addresses T1, Human HDAC5 (Homo sapiens, UniProt Q9UQL6).
T1 construct: full length with C-terminal His tag, MW=51.1 kDa; His (C); host or cells: baculovirus expression system
Put plainly: HDAC5 biochemical assay, class IIa-specific substrate. The settings on record: read-out: HDAC Isoform IC50 (nM) 5. The essentials:
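Full-length C-terminal His-tagged HDAC5 from baculovirus (0.05 ng/ul) incubated 30 min at room temperature with 50 μM Boc-Lys(trifluoroacetyl)-AMC and compound, Tris pH 8.0 buffer with BSA, 1% DMSO. Developer then releases AMC; fluorescence 360/460 nm.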

The next experiment deals with T2, Human HDAC7 (Homo sapiens, UniProt Q8WUI4).
T2 construct: (a.a. 518-end) with N-terminal GST tag; GST (N); host or cells: baculovirus expression system
T2 sequence (Q8WUI4 518-952 limits assumed): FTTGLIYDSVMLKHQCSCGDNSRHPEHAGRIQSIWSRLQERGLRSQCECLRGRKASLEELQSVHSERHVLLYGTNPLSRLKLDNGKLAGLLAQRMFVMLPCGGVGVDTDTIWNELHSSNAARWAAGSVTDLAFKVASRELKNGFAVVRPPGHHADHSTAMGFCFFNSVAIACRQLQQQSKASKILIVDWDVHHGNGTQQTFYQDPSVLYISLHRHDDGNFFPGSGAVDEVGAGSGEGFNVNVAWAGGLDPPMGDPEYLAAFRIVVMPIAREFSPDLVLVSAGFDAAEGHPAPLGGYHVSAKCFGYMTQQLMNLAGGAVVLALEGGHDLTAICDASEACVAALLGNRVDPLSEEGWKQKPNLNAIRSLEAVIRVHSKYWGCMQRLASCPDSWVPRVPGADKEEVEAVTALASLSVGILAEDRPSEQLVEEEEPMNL
Put plainly: HDAC7 biochemical assay, class IIa-specific substrate. The settings on record: read-out: HDAC Isoform IC50 (nM) 7. In short, it runs like this: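 GST-tagged HDAC7 (a.a. 518-end, baculovirus-expressed) at 0.001 ng/ul with 50 μM Boc-Lys(trifluoroacetyl)-AMC substrate, 30 min at room temperature in pH 8.0 Tris buffer with BSA, 1% DMSO final. Developer then releases AMC; fluorescence read at 360/460 nm.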

The target in a further experiment is T3, Recombinant human HDAC6 (Homo sapiens, UniProt Q9UBN7).
T3 construct: full length, MW=159 kDa; GST (N); host or cells: Sf9 insect cells (baculovirus)
T3 sequence (Q9UBN7 1-1215): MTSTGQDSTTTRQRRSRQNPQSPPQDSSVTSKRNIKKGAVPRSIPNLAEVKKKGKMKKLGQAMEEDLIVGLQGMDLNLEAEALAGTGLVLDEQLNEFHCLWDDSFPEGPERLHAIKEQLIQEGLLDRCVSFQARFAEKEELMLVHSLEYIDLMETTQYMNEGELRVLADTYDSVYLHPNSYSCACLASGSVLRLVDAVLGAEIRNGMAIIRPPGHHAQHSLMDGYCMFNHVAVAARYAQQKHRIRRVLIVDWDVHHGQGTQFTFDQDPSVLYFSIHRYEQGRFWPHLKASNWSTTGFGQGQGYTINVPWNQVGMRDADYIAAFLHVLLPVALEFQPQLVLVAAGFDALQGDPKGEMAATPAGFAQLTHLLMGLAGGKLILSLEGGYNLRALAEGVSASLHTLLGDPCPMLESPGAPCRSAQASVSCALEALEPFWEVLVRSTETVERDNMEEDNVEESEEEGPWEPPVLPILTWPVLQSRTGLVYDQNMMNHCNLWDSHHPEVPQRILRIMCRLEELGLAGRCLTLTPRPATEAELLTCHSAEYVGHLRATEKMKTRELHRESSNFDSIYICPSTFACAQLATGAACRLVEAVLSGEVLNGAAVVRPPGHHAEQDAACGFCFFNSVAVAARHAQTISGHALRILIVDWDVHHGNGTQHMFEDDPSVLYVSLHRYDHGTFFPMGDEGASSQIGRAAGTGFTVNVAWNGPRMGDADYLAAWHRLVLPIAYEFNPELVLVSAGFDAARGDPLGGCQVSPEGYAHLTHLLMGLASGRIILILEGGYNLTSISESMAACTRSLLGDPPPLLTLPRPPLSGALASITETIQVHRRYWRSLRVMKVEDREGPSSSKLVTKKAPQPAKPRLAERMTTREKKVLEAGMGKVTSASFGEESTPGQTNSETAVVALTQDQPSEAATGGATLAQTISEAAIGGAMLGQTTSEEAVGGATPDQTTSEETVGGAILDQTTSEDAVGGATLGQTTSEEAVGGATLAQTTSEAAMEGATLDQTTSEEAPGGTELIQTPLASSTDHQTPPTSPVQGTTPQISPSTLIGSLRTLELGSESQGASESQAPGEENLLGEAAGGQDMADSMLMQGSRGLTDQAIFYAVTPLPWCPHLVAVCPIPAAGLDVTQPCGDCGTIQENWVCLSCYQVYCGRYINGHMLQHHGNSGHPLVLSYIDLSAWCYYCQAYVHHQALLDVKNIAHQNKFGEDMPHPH
Put plainly: HDAC6 biochemical assay, AMC-labeled peptide substrate. The settings on record: HDAC6; read-out: HDAC Isoform IC50 (nM) 6. In short, it runs like this: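 Two-step fluorogenic read-out: enzyme deacetylates 50 μM RHKK(Ac)AMC for 1 h at 30° C in pH 8.0 Tris buffer with BSA and 1% DMSO, then developer cleavage gives signal at Ex 360/Em 460. Enzyme: 0.3 ng/ul recombinant full-length human HDAC6, GST-tagged, Sf9-expressed.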

The values that follow come from patent US20210038607A1, “OXADIAZOLYLTHIOPHENE DERIVATIVES USEFUL AS HISTONE DEACETYLASE INHIBITORS” (Karus Therapeutics Limited, priority 2018, published 2021).

T1 sequence (Q9UQL6 656-1122 limits assumed): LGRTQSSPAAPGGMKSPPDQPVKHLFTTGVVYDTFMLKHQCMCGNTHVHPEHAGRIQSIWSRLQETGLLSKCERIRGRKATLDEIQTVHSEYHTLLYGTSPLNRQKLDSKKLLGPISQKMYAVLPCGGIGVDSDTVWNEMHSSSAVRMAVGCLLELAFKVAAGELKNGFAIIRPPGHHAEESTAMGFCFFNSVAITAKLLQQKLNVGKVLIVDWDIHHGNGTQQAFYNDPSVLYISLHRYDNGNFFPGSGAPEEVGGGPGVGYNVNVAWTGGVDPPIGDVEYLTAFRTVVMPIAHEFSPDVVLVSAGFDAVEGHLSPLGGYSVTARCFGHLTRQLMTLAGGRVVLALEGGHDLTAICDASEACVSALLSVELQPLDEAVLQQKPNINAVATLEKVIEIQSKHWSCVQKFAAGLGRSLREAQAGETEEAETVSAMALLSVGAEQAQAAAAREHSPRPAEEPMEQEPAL

`O=C(c1nccnc1N(Cc1ccc(-c2noc(C(F)(F)F)n2)s1)c1cnccn1)N1CCC1` [Example GP, 3-(Azetidine-1-carbonyl)-N-(pyrazin-2-yl)-N-({5-[5-(trifluoromethyl)-1,2,4-oxadiazol-3-yl]thiophen-2-yl}methyl)pyrazin-2-amine]: the IC50 is not above 10000 nM on Human HDAC5, not above 10000 nM on Human HDAC7 and not above 1000 nM on Recombinant human HDAC6.

Regarding `O=C(c1nccnc1N(Cc1ccc(-c2noc(C(F)(F)F)n2)s1)c1cnccn1)N1CC(O)(C(F)(F)F)C1` [Example GQ, 1-{3-[(Pyrazin-2-yl)({5-[5-(trifluoromethyl)-1,2,4-oxadiazol-3-yl]thiophen-2-yl}methyl)amino]pyrazine-2-carbonyl}-3-(trifluoromethyl)azetidin-3-ol], the IC50 at Human HDAC5 was not above 10000 nM; on Human HDAC7, not above 10000 nM; at Recombinant human HDAC6 it was not above 1000 nM.

As for `O=C(c1cncc(N(Cc2ccc(-c3noc(C(F)(F)F)n3)s2)c2cnccn2)c1)N1CCOCC1` [Example GR, N-[5-(Morpholine-4-carbonyl)pyridin-3-yl]-N-({5-[5-(trifluoromethyl)-1,2,4-oxadiazol-3-yl]thiophen-2-yl}methyl)pyrazin-2-amine], the IC50 on Human HDAC5 is not above 500 nM; at Human HDAC7, not above 500 nM; on Recombinant human HDAC6, not above 10000 nM.

As for `CC(C)(O)c1cnnc(N(Cc2ccc(-c3noc(C(F)(F)F)n3)s2)c2cnccn2)c1` [Example GS, 2-{6-[(Pyrazin-2-yl)({5-[5-(trifluoromethyl)-1,2,4-oxadiazol-3-yl]thiophen-2-yl}methyl)amino]pyridazin-4-yl}propan-2-ol], the values for the IC50 at Human HDAC5, on Human HDAC7 and at Recombinant human HDAC6 were not above 1000 nM, not above 1000 nM and not above 500 nM, respectively.

With `CC1(c2cnnc(N(Cc3ccc(-c4noc(C(F)(F)F)n4)s3)c3cnccn3)c2)COC1` [Example GT, 5-(3-Methyloxetan-3-yl)-N-(pyrazin-2-yl)-N-({5-[5-(trifluoromethyl)-1,2,4-oxadiazol-3-yl]thiophen-2-yl}methyl)pyridazin-3-amine], the IC50 at Human HDAC5 was not above 1000 nM; on Human HDAC7, not above 10000 nM; on Recombinant human HDAC6, not above 500 nM.

For `CC(F)(F)c1cnnc(N(Cc2ccc(-c3noc(C(F)(F)F)n3)s2)c2cnccn2)c1` [Example GU, 5-(1,1-Difluoroethyl)-N-(pyrazin-2-yl)-N-({5-[5-(trifluoromethyl)-1,2,4-oxadiazol-3-yl]thiophen-2-yl}methyl)pyridazin-3-amine], the IC50 on Human HDAC5 is not above 10000 nM; at Human HDAC7 it was not above 10000 nM; at Recombinant human HDAC6 it was not above 500 nM.

Take `FC(F)c1cnnc(N(Cc2ccc(-c3noc(C(F)(F)F)n3)s2)c2cnccn2)c1` [Example GV, 5-(Difluoromethyl)-N-(pyrazin-2-yl)-N-({5-[5-(trifluoromethyl)-1,2,4-oxadiazol-3-yl]thiophen-2-yl}methyl)pyridazin-3-amine]: the IC50 at Human HDAC5 is not above 1000 nM; at Human HDAC7 it was not above 1000 nM; on Recombinant human HDAC6 it was not above 500 nM.

As to `OC1(c2cnnc(N(Cc3ccc(-c4noc(C(F)(F)F)n4)s3)c3cnccn3)c2)COC1` [Example GW, 3-{6-[(Pyrazin-2-yl)({5-[5-(trifluoromethyl)-1,2,4-oxadiazol-3-yl]thiophen-2-yl}methyl)amino]pyridazin-4-yl}oxetan-3-ol], the IC50 on Human HDAC5 was not above 10000 nM; at Human HDAC7 it was not above 1000 nM; at Recombinant human HDAC6, not above 500 nM.

`C[C@H]1CCCN1C(=O)c1cnnc(N(Cc2ccc(-c3noc(C(F)(F)F)n3)s2)c2cnccn2)c1` [Example GY, 5-[(2S)-2-Methylpyrrolidine-1-carbonyl]-N-(pyrazin-2-yl)-N-({5-[5-(trifluoromethyl)-1,2,4-oxadiazol-3-yl]thiophen-2-yl}methyl)pyridazin-3-amine]: the results for the IC50 at Human HDAC5, at Human HDAC7 and at Recombinant human HDAC6 were not above 1000 nM, not above 10000 nM and not above 500 nM, respectively.

Take `FC(F)(F)c1nc(-c2ccc(CN(c3ccccn3)c3ccccn3)s2)no1` [Example U, N-(Pyridin-2-yl)-N-({5-[5-(trifluoromethyl)-1,2,4-oxadiazol-3-yl]thiophen-2-yl}methyl)pyridin-2-amine]: the IC50 was not above 10000 nM at Human HDAC5, not above 10000 nM on Human HDAC7 and not above 1000 nM at Recombinant human HDAC6.
